Test results published in PMC12022751, “In vitro and in silico analysis of synthesized N-benzyl indole-derived hydrazones as potential anti-triple negative breast cancer agents” (RSC Advances, 2025).

Experiments:
Type in all cases: cell-based, human
[1] = system: MCF-10A normal breast epithelial cell line; experiment: MTT cytotoxicity assay on normal MCF-10A cells; details: Homo sapiens, MCF-10A, 48 h incubation
Protocol: (§1) All synthesized compounds (5a–5v) were tested using MTT assay at various concentrations (6.5 μM, 12.5 μM, 25 μM, and 50 μM) on the human breast cancer cell line MDA-MB-231. The cytotoxicity of the synthesized analogues was also assessed using human normal breast epithelial cell lines MCF-10A. Table 1 denotes IC50 values, percent inhibition, and cell viability for compounds 5a–v on MDA-MB-231. The dose–response analysis and calculations of IC50 values were performed using IBM SPSS statistics 26. The MTT assay on MDA-MB-231 confirmed the anticancer potential of all compounds. […] We then followed the same protocol as the cancer cells for the non-tumorigenic MCF-10A cells but with different concentrations (6.5 μM, 12.5 μM, 25 μM, and 50 μM). This was done to determine whether the toxic effects of the chemicals were selective for cancer cells compared to non-cancerous cells.
(§2) The in vitro cytotoxicity of the synthetic derivatives was evaluated using an MTT assay against a breast cancer cell line (MDA-MB-231).[33] The normal human breast cell line (MCF-10A) was maintained as a control in this study.[34,35] The cells were grown in DMEM with 10% FBS and 1% antibiotics (100 U mL^−1 penicillin). They were plated in a 96-well plate at a density of 1.0 × 10^4 cells per well and incubated for 24 hours at 37 °C in a 5% CO2 atmosphere. After discarding the medium, both cell lines were treated with various concentrations (6.5 μM, 12.5 μM, 25 μM, and 50 μM) of synthetic triazole derivatives.[36] After 48 h of incubation, [37] 20 μL of MTT solution (5 mg mL^−1) was added to each well and incubated for an additional 4 hours. After incubation, the medium was removed, and the formazan precipitate was dissolved in DMSO. The absorbance of the mixture was then measured at 570 nm using a microplate reader. All experiments were performed in triplicate, and the cytotoxicity was expressed as a percentage of cell viability compared to untreated control cells as per an earlier reported protocol by Sakhi et al.:[36]1 [drawing 1]

[2] = MTT cytotoxicity assay on normal MCF-10A cells; details: human, MCF-10A normal breast epithelial cells, 48 h incubation, test concentration for viability not stated (6.5-50 μM tested), read-out: Viability (%) Normal cell line (MCF-10A)
Protocol: as §1, §2

[3] = system: MDA-MB-231 breast cancer cell line; experiment: MTT cytotoxicity assay on MDA-MB-231; details: 48 h incubation; for Viability (%) Breast cancer cell line (MDA-MB-231): test concentration for viability not stated (6.5-50 μM tested); for IC50: triplicate
Protocol: as §1, §2

COc1ccc(C(=O)NN=Cc2cn(Cc3ccccc3)c3ccccc23)cc1 [Compound 5a, (E)-N′-[(1-benzyl-1H-indol-3-ylmethylene]-4-methoxybenzohydrazide]
IC50 [1]: > 50 µM
viability at 48 h [2]: 82.7%
Viability (%) Breast cancer cell line (MDA-MB-231) [3]: 32.45%
IC50 ([3]; Homo sapiens, MDA-MB-231, 48 h): 25.6 ± 0.4 µM

O=C(NN=Cc1cn(Cc2ccccc2)c2ccccc12)c1ccccc1 [Compound 5b, (E)-N′-[(1-benzyl-1H-indo1-3-yl)methylene]benzohydrazide]
IC50 [1]: > 50 µM
viability at 48 h [2]: 77.1%
Viability (%) Breast cancer cell line (MDA-MB-231) [3]: 18.56%
IC50 ([3]; Homo sapiens, MDA-MB-231, 48 h): 17.2 ± 0.4 µM

Cc1ccc(C(=O)NN=Cc2cn(Cc3ccccc3)c3ccccc23)cc1F [Compound 5c, (E)-N′-((l-benzyl-1H-indo1-3-yl)methylenel-3-fluoro-4-methylbenzohydrazide]
IC50 [1]: > 50 µM
viability at 48 h [2]: 85.7%
Viability (%) Breast cancer cell line (MDA-MB-231) [3]: 37.40%
IC50 ([3]; Homo sapiens, MDA-MB-231, 48 h): 27.1 ± 0.4 µM

O=C(Cc1ccc(C(F)(F)F)cc1)NN=Cc1cn(Cc2ccccc2)c2ccccc12 [Compound 5d, (E)-N′-[(1-benzyl-1H-indo1-3-yl)methylene]-2-(4(trifluoromethyl)phenyl)acetohydrazide]
IC50 [1]: > 50 µM
viability at 48 h [2]: 80.2%
Viability (%) Breast cancer cell line (MDA-MB-231) [3]: 27.94%
IC50 ([3]; Homo sapiens, MDA-MB-231, 48 h): 22.6 ± 0.8 µM

O=C(NN=Cc1cn(Cc2ccccc2)c2ccccc12)c1cccnc1 [Compound 5e, (E)-N′-[(1-benzyl-1H-indo1-3-yl)methylene]nicotinohydrazide]
IC50 [1]: > 50 µM
viability at 48 h [2]: 85.7%
Viability (%) Breast cancer cell line (MDA-MB-231) [3]: 31.47%
IC50 ([3]; Homo sapiens, MDA-MB-231, 48 h): 28.2 ± 0.5 µM

O=C(NN=Cc1cn(Cc2ccccc2)c2ccccc12)c1ccc(Br)cc1 [Compound 5f, (E)-N′-[(1-benzyl-1H-indo1-3-yl)methylene]-4-bromobenzohydrazide]
IC50 [1]: > 50 µM
viability at 48 h [2]: 82.4%
Viability (%) Breast cancer cell line (MDA-MB-231) [3]: 25.05%
IC50 ([3]; Homo sapiens, MDA-MB-231, 48 h): 21.8 ± 0.2 µM

O=C(NN=Cc1cn(Cc2ccccc2)c2ccccc12)c1cc2ccccc2cc1O [Compound 5g, (E)-N′-[(1-benzyl-1H-indo1-3-yl)methylene]-3-hydroxy-2-naphthohydrazide]
IC50 [1]: > 50 µM
viability at 48 h [2]: 81.8%
Viability (%) Breast cancer cell line (MDA-MB-231) [3]: 29.76%
IC50 ([3]; Homo sapiens, MDA-MB-231, 48 h): 24.4 ± 0.6 µM

O=C(NN=Cc1cn(Cc2ccccc2)c2ccccc12)c1ccc(C(F)(F)F)cc1 [Compound 5h, (E)-N′-[(1-benzyl-1H-indo1-3-yl)methylene]-4-(trifluoromethyl)benzohydrazide]
IC50 [1]: > 50 µM
viability at 48 h [2]: 78.1%
Viability (%) Breast cancer cell line (MDA-MB-231) [3]: 33.07%
IC50 ([3]; Homo sapiens, MDA-MB-231, 48 h): 30.8 ± 0.4 µM

O=C(NN=Cc1cn(Cc2ccccc2)c2ccccc12)c1ccco1 [Compound 5i, (E)-N′-[(1-benzyl-1H-indo1-3-yl)methylene]furan-2-carbohydrazide]
IC50 [1]: > 50 µM
viability at 48 h [2]: 84.6%
Viability (%) Breast cancer cell line (MDA-MB-231) [3]: 23.53%
IC50 [3]: 19.2 ± 0.4 µM
IC50 ([3]; Homo sapiens, MDA-MB-231, 48 h): 17.2 ± 0.4 µM

O=C(NN=Cc1cn(Cc2ccccc2)c2ccccc12)c1cccc(Cl)c1 [Compound 5j, (E)-N′-[(1-benzyl-1H-indo1-3-yl)methylene]-3-chlorobenzohydrazide]
IC50 [1]: > 50 µM
viability at 48 h [2]: 80.8%
Viability (%) Breast cancer cell line (MDA-MB-231) [3]: 21.87%
IC50 ([3]; Homo sapiens, MDA-MB-231, 48 h): 22.6 ± 0.1 µM

O=C(NN=Cc1cn(Cc2ccccc2)c2ccccc12)c1ccncc1 [Compound 5k, (E)-N′-[(1-benzyl-1H-indo1-3-yl)methylene]isonicotinohydrazide]
IC50 [1]: > 50 µM
viability at 48 h [2]: 80.1%
Viability (%) Breast cancer cell line (MDA-MB-231) [3]: 23.44%
IC50 ([3]; Homo sapiens, MDA-MB-231, 48 h): 21.4 ± 0.2 µM

O=C(NN=Cc1cn(Cc2ccccc2)c2ccccc12)c1ccccc1Br [Compound 5m, (E)-N′-[(1-benzyl-1H-indo1-3-yl)methylene]-2-bromobenzohydrazide]
IC50 [1]: > 50 µM
viability at 48 h [2]: 87.2%
Viability (%) Breast cancer cell line (MDA-MB-231) [3]: 29.14%
IC50 ([3]; Homo sapiens, MDA-MB-231, 48 h): 26.4 ± 0.2 µM

O=C(Cc1ccccc1)NN=Cc1cn(Cc2ccccc2)c2ccccc12 [Compound 5n, (E)-N′-(l-benzyl-1H-indo1-3-yl)methylenel-2-phenylacetohydrazide]
IC50 [1]: > 50 µM
viability at 48 h [2]: 79.8%
Viability (%) Breast cancer cell line (MDA-MB-231) [3]: 44.16%
IC50 ([3]; Homo sapiens, MDA-MB-231, 48 h): 43.4 ± 0.2 µM

O=C(NN=Cc1cn(Cc2ccccc2)c2ccccc12)c1ccccc1Cl [Compound 5o, (E)-N′-((l-benzyl-1H-indo1-3-yl)methylenel-2-chlorobenzohydrazide]
IC50 [1]: > 50 µM
viability at 48 h [2]: 82.3%
Viability (%) Breast cancer cell line (MDA-MB-231) [3]: 20.37%
IC50 ([3]; Homo sapiens, MDA-MB-231, 48 h): 19.6 ± 0.5 µM

O=C(Cc1ccccc1C(F)(F)F)NN=Cc1cn(Cc2ccccc2)c2ccccc12 [Compound 5p, (E)-N′-[(1-benzyl-1H-indo1-3-yl)methylene]-2-(2-(trifluoromethyl)phenypacetohydrazide]
IC50 [1]: > 50 µM
viability at 48 h [2]: 83.1%
Viability (%) Breast cancer cell line (MDA-MB-231) [3]: 25.67%
IC50 ([3]; Homo sapiens, MDA-MB-231, 48 h): 24.6 ± 0.1 µM

O=C(Cc1ccc(F)cc1F)NN=Cc1cn(Cc2ccccc2)c2ccccc12 [Compound 5q, (E)-N′-[(1-benzyl-1H-indo1-3-yl)methylene]-2-(2,4-difluorophenypacetohydrazide]
IC50 [1]: > 50 µM
viability at 48 h [2]: 79.5%
Viability (%) Breast cancer cell line (MDA-MB-231) [3]: 41.09%
IC50 ([3]; Homo sapiens, MDA-MB-231, 48 h): 37.6 ± 0.2 µM

O=C(Cc1cc(F)cc(F)c1)NN=Cc1cn(Cc2ccccc2)c2ccccc12 [Compound 5r, (E)-N′-[(1-benzyl-1H-indo1-3-yl)methylene]-2-(3,5-difluorophenyl)acetohydrazide]
IC50 [1]: > 50 µM
viability at 48 h [2]: 84.1%
Viability (%) Breast cancer cell line (MDA-MB-231) [3]: 36.18%
IC50 ([3]; Homo sapiens, MDA-MB-231, 48 h): 31.6 ± 0.1 µM

O=C(Cc1cc(F)ccc1F)NN=Cc1cn(Cc2ccccc2)c2ccccc12 [Compound 5s, (E)-N′-[(1-benzyl-1H-indo1-3-yl)methylene]-2-(2,5-difluorophenyl)acetohydrazide]
IC50 [1]: > 50 µM
viability at 48 h [2]: 86.3%
Viability (%) Breast cancer cell line (MDA-MB-231) [3]: 38.14%
IC50 ([3]; Homo sapiens, MDA-MB-231, 48 h): 29.4 ± 0.8 µM

O=C(NN=Cc1cn(Cc2ccccc2)c2ccccc12)c1cccc2ccccc12 [Compound 5u, (E)-N′-[(1-benzyl-1H-indo1-3-yl)methylene]-1-naphthohydrazide]
IC50 [1]: > 50 µM
viability at 48 h [2]: 83.6%
Viability (%) Breast cancer cell line (MDA-MB-231) [3]: 30.59%
IC50 ([3]; Homo sapiens, MDA-MB-231, 48 h): 26.6 ± 0.1 µM

Cc1ccccc1C(=O)NN=Cc1cn(Cc2ccccc2)c2ccccc12 [Compound 5v, (E)-N′-[(1-benzyl-1H-indo1-3-yl)methylene]-2-methylbenzohydrazide]
IC50 [1]: > 50 µM
viability at 48 h [2]: 81%
Viability (%) Breast cancer cell line (MDA-MB-231) [3]: 28.11%
IC50 [3]: 23.1 ± 0.6 µM
IC50 ([3]; Homo sapiens, MDA-MB-231, 48 h): 29.4 ± 0.8 µM
